Key:
KRas^G12V = target: T1, KRas^G12V (Homo sapiens, UniProt P01116, G12V); assay: KRas binding assay (TR-FRET tracer displacement), KRas G12V
T1 construct: Biotinylated KRas (corresponding to amino acids 1-169, produced at Accelegan Inc.); biotin (biotinylated); purchased Accelegan Inc

KRas^G12R = target: T2, KRas^G12R (Homo sapiens, UniProt P01116, G12R); assay: KRas binding assay (TR-FRET tracer displacement), KRas G12R
T2 construct: Biotinylated KRas (corresponding to amino acids 1-169, produced at Accelegan Inc.); biotin (biotinylated); purchased Accelegan Inc

KRas^G12D = target: T3, KRas^G12D (Homo sapiens, UniProt P01116, G12D); assay: KRas binding assay (TR-FRET tracer displacement), KRas G12D
T3 construct: Biotinylated KRas (corresponding to amino acids 1-169, produced at Accelegan Inc.); biotin (biotinylated); purchased Accelegan Inc

[1] = tested on: KRas-mediated phosphorylation of ERK in H727 cells; assay: Inhibition of KRas-mediated phosphorylation of ERK (Cisbio HTRF pERK), H727 cells; assay type: cell-based; settings: Homo sapiens, NCI-H727, H727 cells; HTRF pERK
In short: (§1)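 A cell-based HTRF pERK assay: ten-point, threefold titrations beginning at 10 uM were applied for 3 hrs, with 0.2 uM Trametinib wells as the minimum control. Cells were lysed cold, and lysate was incubated with the antibody pair for 2 hrs before reading.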

[2] = tested on: KRas-mediated phosphorylation of ERK in AsPC-1 cells; assay: Inhibition of KRas-mediated phosphorylation of ERK (Cisbio HTRF pERK), AsPC-1 cells; assay type: cell-based; settings: Homo sapiens, ASPC1, AsPC-1 cells; HTRF pERK
In short: as §1

T3 sequence (P01116 1-169 isoform P01116-2 G12D): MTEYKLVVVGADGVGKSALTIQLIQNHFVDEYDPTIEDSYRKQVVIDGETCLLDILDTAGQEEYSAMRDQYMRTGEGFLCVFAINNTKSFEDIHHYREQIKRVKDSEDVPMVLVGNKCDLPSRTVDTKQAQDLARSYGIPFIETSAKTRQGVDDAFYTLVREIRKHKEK
T1 sequence (P01116 1-169 isoform P01116-2 G12V): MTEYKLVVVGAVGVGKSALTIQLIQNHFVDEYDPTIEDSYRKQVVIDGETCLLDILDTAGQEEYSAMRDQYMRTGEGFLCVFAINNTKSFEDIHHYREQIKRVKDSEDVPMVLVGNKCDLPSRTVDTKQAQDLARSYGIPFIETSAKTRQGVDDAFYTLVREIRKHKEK
T2 sequence (P01116 1-169 isoform P01116-2 G12R): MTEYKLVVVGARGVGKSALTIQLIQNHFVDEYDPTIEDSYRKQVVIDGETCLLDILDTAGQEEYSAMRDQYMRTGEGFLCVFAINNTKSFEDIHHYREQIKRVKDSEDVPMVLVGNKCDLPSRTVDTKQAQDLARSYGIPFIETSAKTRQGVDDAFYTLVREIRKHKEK

Compound | IC50 (KRas^G12V) [nM] | IC50 (KRas^G12R) [nM] | IC50 (KRas^G12D) [nM] | IC50 [1] [nM] | IC50 [2] [nM]
CCc1c(F)ccc2cc(O)cc(-c3ncc4c(N5CCCn6nc(C(=O)N(C)CCO)cc6C5)nc(OC[C@@]56CCCN5C[C@H](F)C6)nc4c3F)c12 [Example 679, 5-(7-(8-ethyl-7-fluoro-3-hydroxynaphthalen-1-yl)-8-fluoro-2-(((2R,7aS)-2-fluorohexahydro-1H-pyrrolizin-7a-yl)methoxy)pyrido[4,3-d]pyrimidin-4-yl)-N-(2-hydroxyethyl)-N-methyl-5,6,7,8-tetrahydro-4H-pyrazolo[1,5-a][1,4]diazepine-2-carboxamide] | 105 | 190 | 124 | 9490 | > 10000
CCc1c(F)ccc2cc(O)cc(-c3ncc4c(NCc5cc(C(=O)N(C)C)n([C@H]6C[C@@H](O)C6)n5)nc(OC[C@@]56CCCN5C[C@H](F)C6)nc4c3F)c12 [Example 681, 3-(((7-(8-ethyl-7-fluoro-3-hydroxynaphthalen-1-yl)-8-fluoro-2-(((2R,7aS)-2-fluorohexahydro-1H-pyrrolizin-7a-yl)methoxy)pyrido[4,3-d]pyrimidin-4-yl)amino)methyl)-1-(cis-3-hydroxycyclobutyl)-N,N-dimethyl-1H-pyrazole-5-carboxamide] | 51 | 167 | 497 | > 10000 | > 10000
CCc1c(F)ccc2cc(O)cc(-c3ncc4c(NCc5cc(C(=O)N(C)C)nn5[C@H]5C[C@H](O)C5)nc(OC[C@@]56CCCN5C[C@H](F)C6)nc4c3F)c12 [Example 682, 5-(((7-(8-ethyl-7-fluoro-3-hydroxynaphthalen-1-yl)-8-fluoro-2-(((2R,7aS)-2-fluorotetrahydro-1H-pyrrolizin-7a(5H)-yl)methoxy)pyrido[4,3-d]pyrimidin-4-yl)amino)methyl)-1-(trans-3-hydroxycyclobutyl)-N,N-dimethyl-1H-pyrazole-3-carboxamide] | 192 | 541 | 710 | > 10000 | > 10000
CCc1c(F)ccc2cc(O)cc(-c3ncc4c(NCc5cc(C(=O)N(C)C)nn5C[C@H]5C[C@H](O)C5)nc(OC[C@@]56CCCN5C[C@H](F)C6)nc4c3F)c12 [Example 686, 5-(((7-(8-ethyl-7-fluoro-3-hydroxynaphthalen-1-yl)-8-fluoro-2-(((2R,7aS)-2-fluorohexahydro-1H-pyrrolizin-7a-yl)methoxy)pyrido[4,3-d]pyrimidin-4-yl)amino)methyl)-1-((trans-3-hydroxycyclobutyl)methyl)-N,N-dimethyl-1H-pyrazole-3-carboxamide] | 6 | 5 | 21 | 8840 | > 10000
CCc1c(F)ccc2cc(O)cc(-c3ncc4c(NCc5cc(C(=O)N(C)C)nn5C[C@H]5C[C@@H](O)C5)nc(OC[C@@]56CCCN5C[C@H](F)C6)nc4c3F)c12 [Example 687, 5-(((7-(8-ethyl-7-fluoro-3-hydroxynaphthalen-1-yl)-8-fluoro-2-(((2R,7aS)-2-fluorohexahydro-1H-pyrrolizin-7a-yl)methoxy)pyrido[4,3-d]pyrimidin-4-yl)amino)methyl)-1-((cis-3-hydroxycyclobutyl)methyl)-N,N-dimethyl-1H-pyrazole-3-carboxamide] | 145 | 175 | 405 | > 10000 | > 10000
CCc1c(F)ccc2cc(O)cc(-c3ncc4c(NCc5cc(C(=O)N(C)C)n(CC6CC(O)C6)n5)nc(OC[C@@]56CCCN5C[C@H](F)C6)nc4c3F)c12 (stereo partly drawn) [Example 688, 3-(((7-(8-ethyl-7-fluoro-3-hydroxynaphthalen-1-yl)-8-fluoro-2-(((2R,7aS)-2-fluorohexahydro-1H-pyrrolizin-7a-yl)methoxy)pyrido[4,3-d]pyrimidin-4-yl)amino)methyl)-1-((3-hydroxycyclobutyl)methyl)-N,N-dimethyl-1H-pyrazole-5-carboxamide] | 42 | 160 | 357 | > 10000 | > 10000

Further compounds by falling IC50 (KRas^G12V), results first:

IC50 (KRas^G12V) [nM] | IC50 (KRas^G12R) [nM] | IC50 (KRas^G12D) [nM] | IC50 [1] [nM] | IC50 [2] [nM] | Compound
98 | 349 | 1650 | > 10000 | > 10000 | CCc1c(F)ccc2cc(O)cc(-c3ncc4c(N5CCC(N6C(=O)OC7CN(C(C)=O)CC76)CC5)nc(OC[C@@]56CCCN5C[C@H](F)C6)nc4c3F)c12 (stereo partly drawn) [Example 689, 5-acetyl-3-(1-(7-(8-ethyl-7-fluoro-3-hydroxynaphthalen-1-yl)-8-fluoro-2-(((2R,7aS)-2-fluorotetrahydro-1H-pyrrolizin-7a(5H)-yl)methoxy)pyrido[4,3-d]pyrimidin-4-yl)piperidin-4-yl)hexahydro-2H-pyrrolo[3,4-d]oxazol-2-one]
43 | 234 | 473 | > 10000 | > 10000 | CCc1c(F)ccc2cc(O)cc(-c3ncc4c(NCc5cc(C(=O)N(C)C)n([C@H]6C[C@H](O)C6)n5)nc(OC[C@@]56CCCN5C[C@H](F)C6)nc4c3F)c12 [Example 680, 3-(((7-(8-ethyl-7-fluoro-3-hydroxynaphthalen-1-yl)-8-fluoro-2-(((2R,7aS)-2-fluorohexahydro-1H-pyrrolizin-7a-yl)methoxy)pyrido[4,3-d]pyrimidin-4-yl)amino)methyl)-1-(trans-3-hydroxycyclobutyl)-N,N-dimethyl-1H-pyrazole-5-carboxamide]
25 | 38 | 509 | > 10000 | > 10000 | CCc1c(F)ccc2cc(O)cc(-c3ncc4c(NCc5cn(C(=O)N(C)C)nc5NC(=O)C5CC(O)C5)nc(OC[C@@]56CCCN5C[C@H](F)C6)nc4c3F)c12 (stereo partly drawn) [Example 693, 4-(((7-(8-ethyl-7-fluoro-3-hydroxynaphthalen-1-yl)-8-fluoro-2-(((2R,7aS)-2-fluorohexahydro-1H-pyrrolizin-7a-yl)methoxy)pyrido[4,3-d]pyrimidin-4-yl)amino)methyl)-3-(3-hydroxycyclobutanecarboxamido)-N,N-dimethyl-1H-pyrazole-1-carboxamide]
11 | 16 | 89 | > 10000 | > 10000 | CCc1c(F)ccc2cc(O)cc(-c3ncc4c(NCc5cc(C(=O)N(C)C)nn5[C@H]5C[C@@H](O)C5)nc(OC[C@@]56CCCN5C[C@H](F)C6)nc4c3F)c12 [Example 678, 5-(((7-(8-ethyl-7-fluoro-3-hydroxynaphthalen-1-yl)-8-fluoro-2-(((2R,7aS)-2-fluorohexahydro-1H-pyrrolizin-7a-yl)methoxy)pyrido[4,3-d]pyrimidin-4-yl)amino)methyl)-1-(cis-3-hydroxycyclobutyl)-N,N-dimethyl-1H-pyrazole-3-carboxamide]
2 | 6 | 5 | > 10000 | > 10000 | CCc1c(F)ccc2cc(O)cc(-c3ncc4c(NCc5cc(C(=O)N(C)C)nn5C5CS(=O)(=O)C5)nc(OC[C@@]56CCCN5C[C@H](F)C6)nc4c3F)c12 [Example 691, 1-(1,1-dioxidothietan-3-yl)-5-(((7-(8-ethyl-7-fluoro-3-hydroxynaphthalen-1-yl)-8-fluoro-2-(((2R,7aS)-2-fluorohexahydro-1H-pyrrolizin-7a-yl)methoxy)pyrido[4,3-d]pyrimidin-4-yl)amino)methyl)-N,N-dimethyl-1H-pyrazole-3-carboxamide]
